Assays:
[1] = test system: Oryza sativa, (L.) Tebonnet; assay: Rice tolerance to post-transplant applications under flooded paddy conditions (Example 187), ORYSAT (Rice, Tebonnet); details: for ORYSAT: herbicidal effect rating 0-9, three to four weeks after treatment; for ORYSAT herbicidal effect rating: rated three to four weeks after treatment
[2] = test system: Sagittaria pygmaea, L.; assay: Preemergence weed control under flooded paddy conditions, SAGPY (Arrowhead (Pygmaea)); assay type: in vivo; details: flooded paddy; for SAGPY: preemergence weeds, herbicidal effect rating 0-9, three to four weeks after treatment; for SAGPY herbicidal effect rating: preemergence, rated three to four weeks after treatment
[3] = test system: Cyperus iria; assay: Preemergence weed control under flooded paddy conditions, CYPIR (Rice Flatsedge); assay type: in vivo; details: flooded paddy; for CYPIR: preemergence weeds, herbicidal effect rating 0-9, three to four weeks after treatment; for CYPIR herbicidal effect rating: preemergence, rated three to four weeks after treatment
[4] = test system: Cyperus serotinus, Rottb.; assay: Postemergence weed control under flooded paddy conditions, CYPSE (Flatsedge); assay type: in vivo; details: rated three to four weeks after treatment
[5] = test system: Cyperus iria; assay: Postemergence weed control under flooded paddy conditions, CYPIR (Rice Flatsedge); assay type: in vivo; details: rated three to four weeks after treatment
[6] = test system: Oryza sativa, (L.) Tebonnet; assay: Rice tolerance to post-transplant applications under flooded paddy conditions (Example 188), ORYSAT (Rice, Tebonnet); details: rated three to four weeks after treatment
[7] = test system: Echinochloa oryzoides (Ard.) Fritsch.; assay: Postemergence weed control under flooded paddy conditions, ECHORC (Watergrass (Calif.)); assay type: in vivo; details: rated three to four weeks after treatment
[8] = test system: Monochoria vaginalis, Presl.; assay: Postemergence weed control under flooded paddy conditions, MOOVA (Monochoria); assay type: in vivo; details: rated three to four weeks after treatment
[9] = test system: Sagittaria pygmaea, L.; assay: Postemergence weed control under flooded paddy conditions, SAGPY (Arrowhead (Pygmaea)); assay type: in vivo; details: rated three to four weeks after treatment
[10] = test system: Cyperus serotinus, Rottb.; assay: Preemergence weed control under flooded paddy conditions, CYPSE (Flatsedge); assay type: in vivo; details: for CYPSE: preemergence weeds, herbicidal effect rating 0-9, three to four weeks after treatment; for CYPSE herbicidal effect rating: preemergence, rated three to four weeks after treatment
[11] = test system: Monochoria vaginalis, Presl.; assay: Preemergence weed control under flooded paddy conditions, MOOVA (Monochoria); assay type: in vivo; details: flooded paddy; for MOOVA: preemergence weeds, herbicidal effect rating 0-9, three to four weeks after treatment; for MOOVA herbicidal effect rating: preemergence, rated three to four weeks after treatment
[12] = test system: Echinochloa oryzoides (Ard.) Fritsch.; assay: Preemergence weed control under flooded paddy conditions, ECHORC (Watergrass (Calif.)); assay type: in vivo; details: flooded paddy; for ECHORC: preemergence weeds, herbicidal effect rating 0-9, three to four weeks after treatment; for ECHORC herbicidal effect rating: preemergence, rated three to four weeks after treatment

CCC(C#N)(CC)c1nsc2ccc(-n3c(=O)cc(C(F)(F)F)n(C)c3=O)cc12 [Example 445, 1,2-Benzisothiazole-3-acetonitrile, 5-[3,6-dihydro-3-methyl-2,6-dioxo-4-(trifluoromethyl)-1(2H)-pyrimidinyl]-alpha,alpha-diethyl-] was tested, and the ORYSAT ([1]; 0.0320 kg/ha) was 5.0, the ORYSAT ([1]; 0.0620 kg/ha) was 6.5 and the ORYSAT ([1]; 0.1250 kg/ha) was 7.0. The ORYSAT ([1]; 0.2500 kg/ha) was 8.0, the SAGPY ([2]; 0.0320 kg/ha) was 4.5 and the SAGPY ([2]; 0.0620 kg/ha) was 8.0. For the same molecule, the SAGPY ([2]; 0.1250 kg/ha) was 8.5, the SAGPY ([2]; 0.2500 kg/ha) was 9.0 and the CYPIR ([3]; 0.0320 kg/ha) was 6.5. The CYPIR ([3]; 0.0620 kg/ha) was 8.0, the CYPIR ([3]; 0.1250 kg/ha) was 9.0 and the CYPIR ([3]; 0.2500 kg/ha) was 9.0. The “herbicidal effect rating, CYPSE” value ([4]; Rate 0.0320 kg/ha) was 0.0, the “herbicidal effect rating, CYPSE” value ([4]; Rate 0.0620 kg/ha) was 2.0 and the “herbicidal effect rating, CYPSE” value ([4]; Rate 0.1250 kg/ha) was 4.0. For the same molecule, the “herbicidal effect rating, CYPSE” value ([4]; Rate 0.2500 kg/ha) was 4.0, the “herbicidal effect rating, CYPIR” value ([5]; Rate 0.0320 kg/ha) was 4.0 and the “herbicidal effect rating, CYPIR” value ([5]; Rate 0.0620 kg/ha) was 7.0. For the same molecule, the “herbicidal effect rating, CYPIR” value ([5]; Rate 0.1250 kg/ha) was 9.0, the “herbicidal effect rating, CYPIR” value ([5]; Rate 0.2500 kg/ha) was 9.0 and the “herbicidal effect rating, ORYSAT (rice tolerance)” value (shortened to “herbicidal effect rating, ORYSAT”) ([6]; Rate 0.0320 kg/ha) was 3.0. For the same molecule, the “herbicidal effect rating, ORYSAT” value ([6]; Rate 0.0620 kg/ha) was 6.0, the “herbicidal effect rating, ORYSAT” value ([6]; Rate 0.1250 kg/ha) was 7.0 and the “herbicidal effect rating, ORYSAT” value ([6]; Rate 0.2500 kg/ha) was 7.0. For the same molecule, the “herbicidal effect rating, ECHORC” value ([7]; Rate 0.0320 kg/ha) was 4.0, the “herbicidal effect rating, ECHORC” value ([7]; Rate 0.0620 kg/ha) was 7.0 and the “herbicidal effect rating, ECHORC” value ([7]; Rate 0.1250 kg/ha) was 9.0. The “herbicidal effect rating, ECHORC” value ([7]; Rate 0.2500 kg/ha) was 9.0, the “herbicidal effect rating, MOOVA” value ([8]; Rate 0.0320 kg/ha) was 0.0 and the “herbicidal effect rating, MOOVA” value ([8]; Rate 0.0620 kg/ha) was 0.0. For the same molecule, the “herbicidal effect rating, MOOVA” value ([8]; Rate 0.1250 kg/ha) was 2.0, the “herbicidal effect rating, MOOVA” value ([8]; Rate 0.2500 kg/ha) was 9.0 and the “herbicidal effect rating, SAGPY” value ([9]; Rate 0.0320 kg/ha) was 0.0. The “herbicidal effect rating, SAGPY” value ([9]; Rate 0.0620 kg/ha) was 0.0, the “herbicidal effect rating, SAGPY” value ([9]; Rate 0.1250 kg/ha) was 4.0 and the “herbicidal effect rating, SAGPY” value ([9]; Rate 0.2500 kg/ha) was 9.0. For the same molecule, the CYPSE ([10]; 0.0320 kg/ha) was 7.5, the CYPSE ([10]; 0.0620 kg/ha) was 8.5 and the CYPSE ([10]; 0.1250 kg/ha) was 8.0. For the same molecule, the CYPSE ([10]; 0.2500 kg/ha) was 8.5, the MOOVA ([11]; 0.0320 kg/ha) was 9.0 and the MOOVA ([11]; 0.0620 kg/ha) was 9.0. For the same molecule, the MOOVA ([11]; 0.1250 kg/ha) was 9.0, the MOOVA ([11]; 0.2500 kg/ha) was 9.0 and the ECHORC ([12]; 0.0320 kg/ha) was 8.5. The ECHORC ([12]; 0.0620 kg/ha) was 8.5, the ECHORC ([12]; 0.1250 kg/ha) was 9.0 and the ECHORC ([12]; 0.2500 kg/ha) was 9.0.

In the case of COC(=O)COc1ccc(C)cc1-c1noc2ccc(-n3c(=O)cc(C(F)(F)F)n(C)c3=O)c(Cl)c12 [Example 261, Acetic acid, {{2-{4-chloro-5-[3,6-dihydro-3-methyl-2,6-dioxo-4-(trifluoromethyl)-1(2H)-pyrimidinyl]-1,2-benzisoxazol-3-yl}-p-tolyl}oxy}-, methyl ester], the “ORYSAT herbicidal effect rating” value ([1]; Rate 0.0320 kg/ha) is reported as 0.0, the “ORYSAT herbicidal effect rating” value ([1]; Rate 0.0620 kg/ha) is reported as 0.0 and the “ORYSAT herbicidal effect rating” value ([1]; Rate 0.1250 kg/ha) is reported as 0.0. The “ORYSAT herbicidal effect rating” value ([1]; Rate 0.2500 kg/ha) was 0.0, the “SAGPY herbicidal effect rating” value ([2]; Rate 0.0320 kg/ha) was 0.0 and the “SAGPY herbicidal effect rating” value ([2]; Rate 0.0620 kg/ha) was 0.0. The “SAGPY herbicidal effect rating” value ([2]; Rate 0.1250 kg/ha) was 0.0, the “SAGPY herbicidal effect rating” value ([2]; Rate 0.2500 kg/ha) was 0.0 and the “CYPIR herbicidal effect rating” value ([3]; Rate 0.0320 kg/ha) was 4.0. The “CYPIR herbicidal effect rating” value ([3]; Rate 0.0620 kg/ha) was 4.5, the “CYPIR herbicidal effect rating” value ([3]; Rate 0.1250 kg/ha) was 5.5 and the “CYPIR herbicidal effect rating” value ([3]; Rate 0.2500 kg/ha) was 2.0. The “herbicidal effect rating, CYPSE” value ([4]; Rate 0.0320 kg/ha) was 0.0, the “herbicidal effect rating, CYPSE” value ([4]; Rate 0.0620 kg/ha) was 0.0 and the “herbicidal effect rating, CYPSE” value ([4]; Rate 0.1250 kg/ha) was 0.0. For the same molecule, the “herbicidal effect rating, CYPSE” value ([4]; Rate 0.2500 kg/ha) was 0.0, the “herbicidal effect rating, CYPIR” value ([5]; Rate 0.0320 kg/ha) was 5.0 and the “herbicidal effect rating, CYPIR” value ([5]; Rate 0.0620 kg/ha) was 6.0. The “herbicidal effect rating, CYPIR” value ([5]; Rate 0.1250 kg/ha) was 6.0, the “herbicidal effect rating, CYPIR” value ([5]; Rate 0.2500 kg/ha) was 6.0 and the “herbicidal effect rating, ORYSAT” value ([6]; Rate 0.0320 kg/ha) was 0.0. The “herbicidal effect rating, ORYSAT” value ([6]; Rate 0.0620 kg/ha) was 0.0, the “herbicidal effect rating, ORYSAT” value ([6]; Rate 0.1250 kg/ha) was 0.0 and the “herbicidal effect rating, ORYSAT” value ([6]; Rate 0.2500 kg/ha) was 0.0. For the same molecule, the “herbicidal effect rating, ECHORC” value ([7]; Rate 0.0320 kg/ha) was 0.0, the “herbicidal effect rating, ECHORC” value ([7]; Rate 0.0620 kg/ha) was 0.0 and the “herbicidal effect rating, ECHORC” value ([7]; Rate 0.1250 kg/ha) was 0.0. For the same molecule, the “herbicidal effect rating, ECHORC” value ([7]; Rate 0.2500 kg/ha) was 0.0, the “herbicidal effect rating, MOOVA” value ([8]; Rate 0.0320 kg/ha) was 9.0 and the “herbicidal effect rating, MOOVA” value ([8]; Rate 0.0620 kg/ha) was 9.0. For the same molecule, the “herbicidal effect rating, MOOVA” value ([8]; Rate 0.1250 kg/ha) was 9.0, the “herbicidal effect rating, MOOVA” value ([8]; Rate 0.2500 kg/ha) was 9.0 and the “herbicidal effect rating, SAGPY” value ([9]; Rate 0.0320 kg/ha) was 0.0. The “herbicidal effect rating, SAGPY” value ([9]; Rate 0.0620 kg/ha) was 0.0, the “herbicidal effect rating, SAGPY” value ([9]; Rate 0.1250 kg/ha) was 0.0 and the “herbicidal effect rating, SAGPY” value ([9]; Rate 0.2500 kg/ha) was 0.0. For the same molecule, the “CYPSE herbicidal effect rating” value ([10]; Rate 0.0320 kg/ha) was 4.5, the “CYPSE herbicidal effect rating” value ([10]; Rate 0.0620 kg/ha) was 4.5 and the “CYPSE herbicidal effect rating” value ([10]; Rate 0.1250 kg/ha) was 4.5. For the same molecule, the “CYPSE herbicidal effect rating” value ([10]; Rate 0.2500 kg/ha) was 0.0, the “MOOVA herbicidal effect rating” value ([11]; Rate 0.0320 kg/ha) was 4.5 and the “MOOVA herbicidal effect rating” value ([11]; Rate 0.0620 kg/ha) was 4.5. The “MOOVA herbicidal effect rating” value ([11]; Rate 0.1250 kg/ha) was 6.0, the “MOOVA herbicidal effect rating” value ([11]; Rate 0.2500 kg/ha) was 3.0 and the “ECHORC herbicidal effect rating” value ([12]; Rate 0.0320 kg/ha) was 2.5. For the same molecule, the “ECHORC herbicidal effect rating” value ([12]; Rate 0.0620 kg/ha) was 2.0, the “ECHORC herbicidal effect rating” value ([12]; Rate 0.1250 kg/ha) was 2.0 and the “ECHORC herbicidal effect rating” value ([12]; Rate 0.2500 kg/ha) was 0.0.

— patent EP0908457B1, “3-(1,2-benzisothiazol- and isoxazol-5-Y1)-2,4(1H,3H)-pyrimidinedione or thione and 3-(1,2-benzisothiazol- and isoxazol-5-y1)-4(3H)-pyrimidinone or thione herbicidal agents” (BASF AKTIENGESELLSCHAFT, priority 1997, dated 1999)
